Measurements reported in patent US20070207230A1, “EXTRACT OF NELUMBINIS SEMEN FOR THE TREATMENT OF DEPRESSION, MEDICINAL COMPOSITE AND HEALTH FOODS INCLUDING THE EXTRACT OF NELUMBINIS SEMEN” (PURIMED CO., LTD., priority 2004, published 2007).

Key:
[1] = system: male Wistar white rats exposed to CMS; assay: Sucrose intake in the CMS model of depression; type: in vivo, rat; settings: 8-week CMS, drug for the last four weeks
Description: Postnatal 6-week-old male Wistar white rats weighing 180-200 g were divided into test groups and a control group. The rats were first trained to experience and drink a 1% sucrose solution for 48 hrs to be adapted to sweetness. After three days, the test groups were exposed to CMS (chronic mild stress) for a total of eight weeks. The CMS procedure applied to the test groups was based on the procedure originally designed by Willner et al. (1987). The rats were sequentially exposed to a variety of mild stressors, and a series of stressors was suitably divided over one week and applied to rats according to a predetermined time schedule. This procedure was repeated for eight weeks.
The stress procedure is given in Table 1, below, which describes a weekly CMS regime (20-h food and water deprivation, prey limitation after the food and water deprivation (45 g powdered prey sprinkled), exposure to empty water bottles after the food and water deprivation, all day illumination, 30° cage tilt; soiled cage (400 ml of water spilled on bedding), presentation of intermittent 85-dB white noise, presentation of flashes of light with a stroboscope, and tripled housing). The control rats were weekly exposed only to food and water deprivation for 20 hrs before sucrose intake was measured, and were normally bred in single cages for the rest of the time with sufficient water and food supply. […]

[2] = Body weight in the CMS model of depression; type: in vivo, rat; settings: after 8-week CMS, drug for the last four weeks; versus CMS control group
Description: The rats were first trained to experience and drink a 1% sucrose solution for 48 hrs to be adapted to sweetness. After three days, the test groups were exposed to CMS (chronic mild stress) for a total of eight weeks. The CMS procedure applied to the test groups was based on the procedure originally designed by Willner et al. (1987). The rats were sequentially exposed to a variety of mild stressors, and a series of stressors was suitably divided over one week and applied to rats according to a predetermined time schedule. This procedure was repeated for eight weeks. […] The control rats were weekly exposed only to food and water deprivation for 20 hrs before sucrose intake was measured, and were normally bred in single cages for the rest of the time with sufficient water and food supply. […] Intake of a 1% sucrose solution was measured once every week in each of the four groups. […] Sucrose preference was expressed as a ratio of sucrose intake to total water and sucrose intake. […] In each group, sucrose intake was monitored from the beginning of CMS and for the CMS period of eight weeks. Body weight was measured before the 20-h water and food deprivation performed to measure sucrose intake every week.

[3] = system: rat hippocampus proteins; assay: 2-DE analysis of hippocampus proteins of CMS rats; settings: drug last four weeks, compared to control group
Description: Thirdly, an increase in marker proteins of antidepression, which play important roles in depression, was examined in the rat hippocampus by 2-DE, as follows. Rats were exposed to CMS for eight weeks and administered with drugs for the last four weeks of a test period. The hippocampus was excised from the rats, suspended with a sonicator and centrifuged, and the supernatants were recovered. Each sample was mixed with an IEF sample buffer and loaded onto an IEF gel. Proteins were separated according to isoelectric point by isoelectric focusing (IEF) in the first dimension and according to molecular weight by SDS-PAGE at 100-200 V for about 1-2 hours in the second dimension. The gel was stained by a Gel-Code Blue staining method and evaluated for elevated or newly emerged proteins by the antidepressive substances. The elevated or newly emerged proteins by the antidepressive substances were subjected to mass spectrometry.
Protein samples from the rat hippocampus were loaded onto an IEF gel. Proteins were separated according to isoelectric point by isoelectric focusing (IEF) in the first dimension and according to molecular weight by SDS-PAGE in the second dimension.

[4] = system: Sprague-Dawley male rats; assay: Forced swim test, immobility time; type: in vivo, rat; settings: 5 min forced swim the day after
Method: During forced swimming, the immobility time, when a rat ceases struggling and remains floating motionless in the water, was measured. The forced swimming itself induces depression in rats. Rats in water baths struggle first, and then stop struggling and remain floating motionless in the water. At the immobile state, rats become desperate and almost come to give up their lives. This time is considered to be the situation when depression is induced.
The antidepressive effects of drugs are assessed using this principle. Before being administered with drugs, experimental animals (rats) are dropped into water baths and forced to swim for 15 minutes to be trained to adapt to a suddenly changed environment without fear.
A comparative group was orally administered with a Hypericum perforatum extract. Another comparative group was intraperitoneally administered with fluoxetine. Each drug was administered for one day or six days.
Before the drug administration, the white rats were dropped into a cylindrical water bath (20 cm in diameter; 40 cm water depth) and forced to swim for 15 min. The day after the drug administration for one day or six days, the rats were forced to swim for 5 min, and during this forced swimming, immobility time was measured.

[5] = system: male rats exposed to CMS; assay: Sexual (mating) behavior after CMS; type: in vivo, rat; settings: drug last four weeks
Method: A decrease in sucrose consumption (the core symptom of depression) in rats was confirmed during the 8-week CMS period, and antidepressants were administered for the last four weeks. Then, mating behavior of rats was observed. This test was carried out a dark and quiet room using a 16×16-inch transparent acrylic box. Mature female rats were ovariectomized, and, to induce sexual receptivity, were administered with 20 μg of estradiol benzoate 48 hrs before the test and 1 mg of progesterone 5 hrs before the test. Male rats were singly housed in the same box for 30 min to adapt to a new environment. […] When female rats have sexual receptivity, that is, are estrous, they allow male rats to mount and show lordosis. Sexual behaviors of male rats were divided into mounting, intromission and ejaculation, and frequency of each behavior was recorded. The number of ejaculation (higher frequency generally means higher sexual activity) was recorded for 30 min. The time taken after ejaculation before resumption of sexual activity was called “post-ejaculation interval (PEI)”. A decrease in PEI generally means that male rats have increased sexual activity.

[6] = system: 5-HT1A receptor; assay: [3H]-8-OH-DPAT receptor binding autoradiography on brain sections of CMS rats; type: in vivo, rat
Method: Secondarily, antidepressive effects were evaluated by an increase or decrease in receptor binding of a serotonin 1A receptor agonist, [^3H]-8-OH-DPAT, in the rat prefrontal cortex, hippocampus and hypothalamus, which play important roles in depression, as follows. […] Whole brains were excised from the rats and rapidly frozen in dry ice. The rapidly frozen brains were stored at −70° C. until sectioned. The brains were cryo-sectioned into a size of 20 ? at −20° C. using a cryostat microtome (Leika), and each section was attached onto a gelatin-coated slide (Superfrost/Plus, Fisher Scientific). The slides were stored at −70° C. until use for observing changes in 5-HT1A receptor levels or activity. The changes in 5-HT1A receptor were examined using a radioisotope, [^3H]-8-OH-DPAT. The slides were taken out from a −70° C. freezer where the slides had been stored, and were pre-incubated in Tris-HCl buffer (170 mM Tris, 4 mM CaCl2, pH 7.6) for 30 min at room temperature. Then, the slides were incubated in Tris-HCl buffer containing 2 nM [^3H]-8-OH-DPAT (Amersham) for one hour. This incubation is total binding for observing the changes in the whole 5-HT1A receptor, and non-specific binding was observed using Tris-HCl buffer containing 1 μM 5-HT (Sigma). Then, the slides were washed with Tris-HCl buffer precooled at 4° C. six times and dried with chilled air. The slides were completely dried in a desiccator for 24 hours. The completely dried slides are exposed to Hyperfilm along with a standard scale bar for five weeks. The film exposed for five weeks was developed using a developer and a fixer. For quantitative analysis of density, the film was scanned using an image analysis program, ImageQuant (Molecular dynamics).
The changes in 5-HT1A receptor levels or activity were examined using a radioisotope, [^3H]-8-OH-DPAT. Reduced levels or inactivation of 5-HT1A receptor occur in the prefrontal cortex, hippocampus and hypothalamus of depressed patients. […] This normalization of 5-HT1A receptor by antidepressant administration is effective in treating depression and depression-associated neurodegeneration. Based on this fact, an increase in 5-HT1A receptor levels can be assessed by a receptor binding assay using a 5-HT1A receptor […]. When an increase in 5-HT1A receptor levels is observed upon Nelumbinis Semen administration in comparison with a control group exposed to CMS, this is considered an in vivo indication of an antidepressive effect at the molecular level. After drugs were administered for the last four weeks of the 8-week CMS period, an increase in 5-HT1A receptor levels, as an in vivo indication of antidepressive effect, was found in animals administered with the Nelumbinis Semen extract.

[7] = system: male Wistar white rats exposed to CMS; assay: Open field activity after CMS; type: in vivo, rat; settings: 8-week CMS, drug for the last four weeks; average
Description: The open field consisted of a wooden box of 75×75×30 cm, the floor of which was divided by width and length lines into 15 cm squares. The open field was connected to a small box of 15×15×15 cm, which was used as a start box where experimental animals waited to enter the open field. A vertical sliding door was installed between the start box and the open field. White rats were placed in the start box, and, after 30 sec, the sliding door was open. The time to leave the start box toward the open field, which was expressed as start latency, was recorded. The start latency time means the time ranging from when the door was opened to when the rat tails completely exited the start box. […] The following behaviors were recorded for a total of 10 min: locomotion, rearing, grooming and defecation. Grooming behavior was recorded as the total time spent grooming in 10 min, and the remaining behaviors were all recorded as frequencies. Locomotor activity was recorded by counting the number of squares each white rat crossed on the floor divided into 25 15×15-cm squares using a computer tracking system. […] Grooming was recorded as the number of times each rat stroked its head or combed its fur with its forepaws during 10 min. After the 10-min observation, the white rats were removed from the open field, and defecation frequency was recorded by counting fecal boluses on the floor of the open field.

SMILES: CNCCC(Oc1ccc(C(F)(F)F)cc1)c1ccccc1 (stereo not drawn) [fluoxetine]
- sucrose consumption [1]: restored to levels similar to the normal group
- body weight [2]: greater weight loss than the control group
- protein spots in 2-DE of hippocampus [3]: decrease in spots 1 and 4
- decrease in immobility time in comparison with a control group ([4]; one-day drug administration): 9.3%
- decrease in immobility time in comparison with a control group ([4]; six-day drug administration): 22.1%
- post-ejaculation interval (PEI) ([5]; compared to control animals exposed to CMS): no significant difference
- sexual behavior (ejaculation frequency in 30 min) ([5]; compared to normal animals): remarkably reduced
- 5-HT1A receptor levels ([6]; CA2 region of the rat hippocampus): decrease
- decrease in 5-HT1A receptor levels ([6]; CA3 region of the rat hippocampus): 2%
- decrease in 5-HT1A receptor levels ([6]; layer I-II of the rat cerebral frontal cortex, compared to the NS group, P<0.05): 46%
- 5-HT1A receptor levels ([6]; rat hippocampus and hypothalamus, compared to CMS control group): increase
- visit counts in open field [7]: 60 places in 10 min
